Measurements taken from ChEMBL document CHEMBL1201862, “PubChem BioAssay data set” (2004).
Active and inactive are the calls of the source.

Assays:
HeLa = assay: ATP-based viability loss in HeLa cells – cell-based, CellTiter-Glo luminescence, cherry-pick samples, cytotoxicity control for MITF activator project, dose response (AID 540259); format: functional; conditions: Homo sapiens
[1] = molecular target: SWI/SNF-related matrix-associated actin-dependent regulator of chromatin subfamily A member 2 (Homo sapiens, UniProt P51531); assay: Luminescence-based cell-based high throughput dose response assay to identify activators of the function of SWI/SNF related, matrix associated, actin dependent regulator of chromatin, subfamily a, member 2 (SMARCA2, BRM).; format: functional
[2] = Counterscreen for activators of the function of SWI/SNF related, matrix associated, actin dependent regulator of chromatin, subfamily a, member 2 (SMARCA2, BRM): Luminescence-based cell-based high throughput dose response assay to identify non-selective compounds using the VP16 reporter assay.; format: functional
Vero [3] = assay: mammalian cell viability reduction – secondary assay, cytotoxicity control for West Nile virus antiviral project, dose response (AID 1650); format: functional; conditions: Chlorocebus sabaeus
[4] = Luminescence Cell-Based Dose Retest to Confirm Inhibitors of Cancer Stem Cells. [Related pubchem assays (depositor defined):AID2717, AID2721]; format: functional; conditions: Homo sapiens
[5] = viability loss of HMLE_sh_eGFP cells – cell-based, luminescence, counter-screen for HMLE_sh_ECad selective toxicity project, dose response (AID 463074); format: functional, Homo sapiens;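 further: HMLE human mammary epithelial cells expressing control shRNA against eGFP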
[6] = molecular target: Microphthalmia-associated transcription factor (Homo sapiens, UniProt O75030); assay: reducers of TRPM1 reporter luminescence, concentration series – cell-based, SK-MEL-5, cherry-picked, set 3, MITF inhibitor project, dose response (AID 493073); format: functional;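 further: SK-MEL-5 melanoma cells with luciferase driven by the MITF target TRPM1 promoter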
[7] = HEK-293T cell viability reduction – luminescence, B-cell screen hits, cytotoxicity control for BCR NF-kB inhibitor project, dose response (AID 489021); format: functional, cell-based;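 further: HEK-293T cells carrying an NF-kB luciferase reporter; cells exposed to compound for about 14 hours before viability readout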
Vero [8] = assay: cells; format: functional, cell-based; conditions: Chlorocebus sabaeus
A-375 [9] = assay: MITF: Counter assay: A375 proliferation Measured in Cell-Based System Using Plate Reader - 2084-03_Inhibitor_Dose_DryPowder_Activity. [Related pubchem assays (depositor defined):AID488944]; format: functional; conditions: Homo sapiens
INS1 = assay: INS-1E survival protection against cytokine death – cell-based, luminescence, retest, dose response (AID 449756); format: functional; conditions: Rattus norvegicus;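 further: cell death triggered by IL-1 beta plus TNF-alpha plus IFN-gamma mixture; protective hits raise ATP signal compared with cytokine alone wells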
Vero [10] = assay: cells; format: functional; conditions: Chlorocebus sabaeus
A-375 [11] = assay: proliferation inhibition in MITF-low A375 cells – cell-based, cherry-pick samples, set 2, counter-screen for MITF modulator project, dose response (AID 540335); format: functional; conditions: Homo sapiens
Escherichia coli = assay: microbe, parasite or virus in culture
CAAX prenyl protease 2 = CAAX prenyl protease 2 (Homo sapiens, UniProt Q9Y256); assay: inhibition of Ras-converting CAAX protease Rce1 – biochemical, yeast membranes, quenched-peptide fluorescence, cherry-pick, dose response (AID 588849)
[12] = Trypanosoma cruzi growth suppression in host cells – NIH3T3 host cells, beta-gal luminescence, confirmation (AID 2044); format: functional, cell-based;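 further: intracellular parasites grown in NIH/3T3 mouse fibroblasts as host cells; luminescent beta-galactosidase reporter signal from transgenic T. cruzi replicating inside host cells; inhibitors lower the luminescence signal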
[13] = NIH3T3 cell viability loss – ATP luminescence, mouse fibroblasts, counter-screen, dose response (AID 2010); format: functional, cell-based;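 further: cells exposed to compound for about 90 hours before reading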
Trypsin = Trypsin (Sus scrofa, UniProt P00761); assay: trypsin protease activity blockade – biochemical, quenched peptide fluorescence, cherry-pick, selectivity assay for Rce1 protease inhibitor project, dose response (AID 488789)
[14] = NIH-3T3 fibroblast cytotoxicity, dose response, cytotoxicity control, cell-based, fluorescence, Alamar Blue, secondary assay (AID 2327); format: functional;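 further: NIH-3T3 mouse fibroblasts cultured with fluconazole at 8 µg/mL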
[15] = test system: Streptococcus sp. 'group A'; assay: Streptococcus pyogenes SK(-)GAS viability under kanamycin – luminescence, BacTiterGlo, confirmation, counter-screen for streptokinase expression inhibitor project, dose response (AID 1900); format: functional, organism-based
[16] = fluconazole-exposed Candida albicans growth modulators – fluorescence, retest, confirmation (AID 2467); format: functional, cell-based
[17] = molecular target: Serine/threonine-protein phosphatase (Candida dubliniensis (strain CD36 / CBS 7987 / NCPF 3949 / NRRLY-17841) (Yeast), UniProt B9W6M3); assay: blockers of CaCl2-induced CDRE-lacZ signaling – S. cerevisiae, luminescence, secondary, dose response (AID 2388); format: functional, cell-based;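 further: yeast reporter cells carrying a calcineurin-responsive lacZ construct stimulated with calcium chloride; luminescent beta-galactosidase reporter signal in whole cells rather than isolated phosphatase activity; potency for inhibition where a drop in reporter signal means calcineurin blockade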
Streptococcus = assay: GAS UMAA2166 growth inhibition – luminescence, BacTiterGlo, counter-screen for streptokinase expression inhibitor project, dose response (AID 1915); format: functional, organism-based;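 further: potency for reduction of bacterial viability or growth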
[18] = molecular target: ATP-dependent molecular chaperone HSP82 (Candida albicans (strain WO-1) (Yeast), UniProt C4YTQ8); assay: steroid-induced GRE reporter decrease in yeast – S. cerevisiae, luminescence, Hsp90 inhibitor project, dose response (AID 2400); format: functional, cell-based;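 further: beta-galactosidase luminescence from glucocorticoid response element reporter as proxy for Hsp90 function; inhibitor potency where signal loss means Hsp90 inhibition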
HEK293 = assay: EBV LMP1 TES2 canonical NF-kB signalling blockers – cell-based, HEK293, luciferase, cherry-pick, dose response (AID 588343); format: functional; conditions: Homo sapiens
[19] = molecular target: Latent membrane protein 1 (Human herpesvirus 4 (strain B95-8), UniProt P03230); assay: LMP1 TES1 pathway selectivity over dsRED control – imaging, HEK293T, dual-color eGFP/dsRED, cherry-picks, selectivity assay for LMP1 NF-kB inhibitor project, dose response (AID 588398); format: functional, cell-based
[20] = reduction of Shn3 3'UTR-driven luciferase in osteoblasts – cell-based, Clone20 osteoblasts, firefly luciferase, cherry-picked, dose response (AID 624132); format: functional;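 further: firefly luciferase luminescence from reporter carrying the Shn3 3'UTR in osteoblasts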
[21] = loss of viability in HepG2 cells – cell-based, CellTiter-Glo, cherry-picked, cytotoxicity control for Shn3 inhibitor project, dose response (AID 624134); format: functional
[22] = non-specific 3'UTR reporter inhibition in Clone20-Shn3RL – cell-based, Renilla luciferase, cherry-picked, counter-screen for Shn3 inhibitor project, dose response (AID 624133); format: functional
Cysteine protease ATG4B = Cysteine protease ATG4B (Homo sapiens, UniProt Q9Y4P1); format: functional;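 further: Fluorescence-based dose-response confirmation assay measuring inhibition of ATG4B activity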
Phospholipase A2 = Phospholipase A2 (Homo sapiens, UniProt P04054); format: functional;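 further: confirmatory dose-response counterscreen on phospholipase A2, testing hits that came from an ultra-high-throughput screen for ATG4B inhibitors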
[23] = luciferase reporter signal suppression in cells – H4 neuroglioma cells, luminescence, dose response (AID 1990); format: functional, cell-based
[24] = Luminescence Cell-Based Dose Response HTS to Identify Inhibitors of 5'UTR Stem-Loop Driven Prion Protein mRNA Translation in H4 Neuroglioblastoma Cells. [Related pubchem assays: 1827 (Project Summary), 1813 (Primary HTS)]; format: functional
[25] = alpha-synuclein stem-loop luciferase translation blockers – H4 neuroglioma cells, luminescence, confirmation (AID 1988); format: functional, cell-based
[26] = molecular target: T1, Apoptotic protease-activating factor 1 (Homo sapiens, UniProt O14727); format: functional
T1 sequence (O14727 whole entry): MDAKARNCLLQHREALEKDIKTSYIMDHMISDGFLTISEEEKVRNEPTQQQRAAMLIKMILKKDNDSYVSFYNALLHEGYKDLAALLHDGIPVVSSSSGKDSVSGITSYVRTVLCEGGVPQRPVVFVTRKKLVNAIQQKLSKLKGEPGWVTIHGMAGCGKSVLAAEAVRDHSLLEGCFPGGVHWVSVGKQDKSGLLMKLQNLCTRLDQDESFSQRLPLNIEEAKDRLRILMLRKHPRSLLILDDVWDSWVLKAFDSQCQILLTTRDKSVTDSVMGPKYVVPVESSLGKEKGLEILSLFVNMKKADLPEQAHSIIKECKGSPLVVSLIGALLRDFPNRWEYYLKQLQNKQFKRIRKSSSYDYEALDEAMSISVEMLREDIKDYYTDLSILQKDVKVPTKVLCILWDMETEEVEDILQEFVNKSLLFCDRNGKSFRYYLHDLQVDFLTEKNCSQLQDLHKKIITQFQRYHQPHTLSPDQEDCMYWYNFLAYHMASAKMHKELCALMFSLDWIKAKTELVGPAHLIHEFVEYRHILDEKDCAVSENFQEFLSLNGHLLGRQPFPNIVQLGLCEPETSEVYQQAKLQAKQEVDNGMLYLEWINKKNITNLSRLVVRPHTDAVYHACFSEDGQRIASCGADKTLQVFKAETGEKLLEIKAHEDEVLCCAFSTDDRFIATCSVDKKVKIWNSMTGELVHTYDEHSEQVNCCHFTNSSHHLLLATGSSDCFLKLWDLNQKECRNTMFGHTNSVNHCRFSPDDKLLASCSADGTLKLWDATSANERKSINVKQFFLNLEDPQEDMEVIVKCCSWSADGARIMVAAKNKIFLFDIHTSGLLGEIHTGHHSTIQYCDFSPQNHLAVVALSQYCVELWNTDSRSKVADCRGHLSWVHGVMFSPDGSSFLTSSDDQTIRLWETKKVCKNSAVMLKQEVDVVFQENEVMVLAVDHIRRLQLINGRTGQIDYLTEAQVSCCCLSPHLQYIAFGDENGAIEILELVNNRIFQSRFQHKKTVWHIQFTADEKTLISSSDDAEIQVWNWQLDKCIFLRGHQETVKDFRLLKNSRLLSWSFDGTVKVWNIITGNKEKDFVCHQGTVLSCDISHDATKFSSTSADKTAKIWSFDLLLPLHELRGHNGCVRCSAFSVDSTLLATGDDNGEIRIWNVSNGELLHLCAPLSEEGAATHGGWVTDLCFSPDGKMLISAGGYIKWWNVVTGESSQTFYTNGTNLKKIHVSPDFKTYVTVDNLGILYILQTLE

CAAX prenyl protease 2, sequence (Q9Y256 whole entry): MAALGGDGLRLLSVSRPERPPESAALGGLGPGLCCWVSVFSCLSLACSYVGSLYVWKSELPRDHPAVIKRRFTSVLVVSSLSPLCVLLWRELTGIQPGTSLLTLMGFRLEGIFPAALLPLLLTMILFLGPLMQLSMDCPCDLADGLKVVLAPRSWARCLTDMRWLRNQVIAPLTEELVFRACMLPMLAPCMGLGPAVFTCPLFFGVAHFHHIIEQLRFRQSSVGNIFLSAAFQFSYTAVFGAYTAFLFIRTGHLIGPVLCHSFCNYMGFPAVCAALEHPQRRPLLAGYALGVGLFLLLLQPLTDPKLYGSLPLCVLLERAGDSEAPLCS
Microphthalmia-associated transcription factor, sequence (O75030 whole entry): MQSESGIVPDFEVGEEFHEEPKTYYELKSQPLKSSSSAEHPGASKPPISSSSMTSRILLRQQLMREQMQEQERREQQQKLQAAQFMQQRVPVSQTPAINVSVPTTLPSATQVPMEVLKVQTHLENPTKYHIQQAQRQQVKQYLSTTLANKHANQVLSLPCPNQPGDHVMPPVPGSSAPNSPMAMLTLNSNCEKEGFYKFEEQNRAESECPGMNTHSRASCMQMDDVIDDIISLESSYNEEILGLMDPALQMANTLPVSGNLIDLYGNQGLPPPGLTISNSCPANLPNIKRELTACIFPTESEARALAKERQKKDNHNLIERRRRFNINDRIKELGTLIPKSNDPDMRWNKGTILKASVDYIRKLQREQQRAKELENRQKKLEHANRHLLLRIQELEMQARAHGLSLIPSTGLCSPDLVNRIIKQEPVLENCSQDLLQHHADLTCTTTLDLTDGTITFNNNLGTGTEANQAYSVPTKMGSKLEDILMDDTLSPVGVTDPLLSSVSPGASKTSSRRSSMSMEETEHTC
Cysteine protease ATG4B, sequence (Q9Y4P1 whole entry): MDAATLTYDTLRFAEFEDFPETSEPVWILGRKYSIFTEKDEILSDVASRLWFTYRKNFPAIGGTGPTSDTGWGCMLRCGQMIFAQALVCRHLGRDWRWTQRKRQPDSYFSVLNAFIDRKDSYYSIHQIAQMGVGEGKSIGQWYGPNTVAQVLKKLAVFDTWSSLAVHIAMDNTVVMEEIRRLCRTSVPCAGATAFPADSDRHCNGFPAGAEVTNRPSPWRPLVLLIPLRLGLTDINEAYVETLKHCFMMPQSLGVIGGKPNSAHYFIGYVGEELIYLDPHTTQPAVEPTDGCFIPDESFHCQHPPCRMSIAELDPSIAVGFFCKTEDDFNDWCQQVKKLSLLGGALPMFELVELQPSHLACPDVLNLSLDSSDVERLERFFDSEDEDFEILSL
SWI/SNF-related matrix-associated actin-dependent regulator of chromatin subfamily A member 2, sequence (P51531 whole entry): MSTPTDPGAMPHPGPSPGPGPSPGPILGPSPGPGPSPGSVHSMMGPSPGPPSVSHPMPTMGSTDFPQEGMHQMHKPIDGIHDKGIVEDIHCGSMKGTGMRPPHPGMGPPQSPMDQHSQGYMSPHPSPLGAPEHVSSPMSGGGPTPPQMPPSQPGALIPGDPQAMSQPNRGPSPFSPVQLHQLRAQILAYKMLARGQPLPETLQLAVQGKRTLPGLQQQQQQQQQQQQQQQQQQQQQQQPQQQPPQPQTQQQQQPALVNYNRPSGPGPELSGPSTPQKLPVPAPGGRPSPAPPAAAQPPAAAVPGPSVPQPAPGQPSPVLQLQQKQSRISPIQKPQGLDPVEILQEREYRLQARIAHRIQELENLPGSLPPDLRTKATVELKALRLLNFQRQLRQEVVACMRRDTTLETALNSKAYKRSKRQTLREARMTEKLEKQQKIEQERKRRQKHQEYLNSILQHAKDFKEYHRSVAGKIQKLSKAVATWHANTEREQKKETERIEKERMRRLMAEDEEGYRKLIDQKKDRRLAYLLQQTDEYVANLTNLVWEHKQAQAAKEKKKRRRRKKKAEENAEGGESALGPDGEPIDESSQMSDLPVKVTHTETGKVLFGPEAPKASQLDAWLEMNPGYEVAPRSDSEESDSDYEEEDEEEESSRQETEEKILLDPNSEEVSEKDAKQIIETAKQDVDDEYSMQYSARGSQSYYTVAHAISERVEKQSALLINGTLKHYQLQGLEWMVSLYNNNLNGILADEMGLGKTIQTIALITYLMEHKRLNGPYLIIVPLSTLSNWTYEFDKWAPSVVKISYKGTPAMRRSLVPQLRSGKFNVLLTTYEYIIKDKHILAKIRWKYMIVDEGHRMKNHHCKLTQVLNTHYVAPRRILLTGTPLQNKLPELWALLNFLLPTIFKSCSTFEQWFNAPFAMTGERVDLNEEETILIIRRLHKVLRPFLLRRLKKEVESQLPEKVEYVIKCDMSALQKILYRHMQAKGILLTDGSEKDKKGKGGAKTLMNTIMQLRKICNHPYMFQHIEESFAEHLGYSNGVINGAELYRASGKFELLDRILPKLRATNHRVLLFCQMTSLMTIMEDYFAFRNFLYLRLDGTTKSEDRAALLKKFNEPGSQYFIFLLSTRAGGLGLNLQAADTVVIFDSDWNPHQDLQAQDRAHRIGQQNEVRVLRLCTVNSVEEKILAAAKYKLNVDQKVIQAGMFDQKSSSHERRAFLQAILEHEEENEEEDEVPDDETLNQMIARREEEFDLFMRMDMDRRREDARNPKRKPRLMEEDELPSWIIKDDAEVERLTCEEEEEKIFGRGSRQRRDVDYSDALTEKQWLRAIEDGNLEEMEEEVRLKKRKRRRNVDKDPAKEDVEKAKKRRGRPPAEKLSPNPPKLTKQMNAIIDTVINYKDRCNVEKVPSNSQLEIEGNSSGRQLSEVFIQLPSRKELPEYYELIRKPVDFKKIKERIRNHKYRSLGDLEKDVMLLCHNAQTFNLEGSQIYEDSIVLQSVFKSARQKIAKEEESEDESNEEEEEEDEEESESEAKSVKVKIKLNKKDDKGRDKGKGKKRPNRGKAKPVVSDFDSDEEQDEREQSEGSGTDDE
Phospholipase A2, sequence (P04054 whole entry): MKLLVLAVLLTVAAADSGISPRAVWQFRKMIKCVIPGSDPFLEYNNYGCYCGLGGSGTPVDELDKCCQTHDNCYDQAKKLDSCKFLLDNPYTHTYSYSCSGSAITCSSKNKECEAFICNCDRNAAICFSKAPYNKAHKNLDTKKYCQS
Serine/threonine-protein phosphatase, sequence (B9W6M3 whole entry): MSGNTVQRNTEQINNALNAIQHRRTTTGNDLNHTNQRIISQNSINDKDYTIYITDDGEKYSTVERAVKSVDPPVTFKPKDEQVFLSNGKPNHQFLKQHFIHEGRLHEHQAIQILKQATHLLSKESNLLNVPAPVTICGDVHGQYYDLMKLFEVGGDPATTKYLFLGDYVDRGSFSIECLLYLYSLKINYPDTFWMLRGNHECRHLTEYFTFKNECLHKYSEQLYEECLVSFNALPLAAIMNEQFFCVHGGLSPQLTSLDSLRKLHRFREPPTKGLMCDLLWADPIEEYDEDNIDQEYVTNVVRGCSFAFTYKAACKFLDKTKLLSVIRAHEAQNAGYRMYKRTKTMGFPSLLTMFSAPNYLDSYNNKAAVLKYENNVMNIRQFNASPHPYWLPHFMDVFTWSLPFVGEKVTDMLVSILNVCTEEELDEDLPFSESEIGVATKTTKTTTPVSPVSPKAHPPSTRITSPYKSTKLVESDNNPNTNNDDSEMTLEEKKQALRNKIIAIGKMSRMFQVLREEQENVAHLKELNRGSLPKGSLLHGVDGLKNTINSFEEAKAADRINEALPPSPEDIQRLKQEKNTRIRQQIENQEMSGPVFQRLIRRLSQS
Latent membrane protein 1, sequence (P03230 whole entry): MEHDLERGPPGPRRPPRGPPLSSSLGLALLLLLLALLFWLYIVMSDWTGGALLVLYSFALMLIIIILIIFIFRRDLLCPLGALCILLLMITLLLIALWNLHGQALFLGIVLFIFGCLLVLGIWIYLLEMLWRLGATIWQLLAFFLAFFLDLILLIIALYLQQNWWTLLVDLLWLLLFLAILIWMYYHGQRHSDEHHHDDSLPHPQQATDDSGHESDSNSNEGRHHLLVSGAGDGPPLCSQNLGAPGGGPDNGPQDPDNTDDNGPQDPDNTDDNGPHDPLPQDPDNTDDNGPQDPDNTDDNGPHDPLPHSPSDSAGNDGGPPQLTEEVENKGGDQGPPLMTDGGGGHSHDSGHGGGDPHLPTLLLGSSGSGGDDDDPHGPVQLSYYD
Trypsin, sequence (P00761 whole entry): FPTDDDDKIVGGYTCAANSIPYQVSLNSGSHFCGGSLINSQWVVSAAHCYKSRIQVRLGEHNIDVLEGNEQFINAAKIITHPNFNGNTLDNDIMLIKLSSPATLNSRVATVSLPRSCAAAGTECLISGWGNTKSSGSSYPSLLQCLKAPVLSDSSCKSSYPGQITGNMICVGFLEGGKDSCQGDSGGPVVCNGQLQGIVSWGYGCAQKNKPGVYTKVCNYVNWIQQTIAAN
ATP-dependent molecular chaperone HSP82, sequence (C4YTQ8 whole entry): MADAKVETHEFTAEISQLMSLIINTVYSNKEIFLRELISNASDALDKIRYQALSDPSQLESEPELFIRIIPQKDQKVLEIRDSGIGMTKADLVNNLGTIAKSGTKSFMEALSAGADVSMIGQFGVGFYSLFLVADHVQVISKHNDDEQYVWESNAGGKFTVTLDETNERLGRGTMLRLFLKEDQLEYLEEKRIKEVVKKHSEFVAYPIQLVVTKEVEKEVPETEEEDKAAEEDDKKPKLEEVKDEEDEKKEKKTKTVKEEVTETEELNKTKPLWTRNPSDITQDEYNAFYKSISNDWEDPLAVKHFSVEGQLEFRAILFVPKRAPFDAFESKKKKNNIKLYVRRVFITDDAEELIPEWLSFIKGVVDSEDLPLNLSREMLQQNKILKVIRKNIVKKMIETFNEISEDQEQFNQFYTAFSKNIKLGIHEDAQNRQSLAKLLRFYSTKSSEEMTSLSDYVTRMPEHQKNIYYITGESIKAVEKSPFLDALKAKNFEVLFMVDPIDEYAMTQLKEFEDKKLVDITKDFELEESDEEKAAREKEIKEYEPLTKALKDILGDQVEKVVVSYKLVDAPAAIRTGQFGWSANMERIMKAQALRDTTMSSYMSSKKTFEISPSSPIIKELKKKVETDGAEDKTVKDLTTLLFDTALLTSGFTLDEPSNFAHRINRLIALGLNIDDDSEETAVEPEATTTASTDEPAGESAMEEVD

With `Cc1nc(COC(=O)c2c(C)nn(-c3ccccc3)c2C)cs1` the AC50 (HeLa) was 76 µM (active), the EC50 [1] was > 91.1 µM (inactive) and the EC50 [2] was > 91.1 µM (inactive).
In the case of `Cc1nc2ccccn2c1C(=O)/C=C/c1cccc([N+](=O)[O-])c1`, the CC50 (Vero [3]) is reported as 5.91 µM (active), the AC50 [4] is reported as 26.6 µM (active) and the AC50 [5] is reported as 56.9 µM (active). For the same compound, the AC50 [6] was 6.9 µM (active), the IC50 [7] was > 80 µM (inactive) and the IC50 (Vero [8]) was 17.2 µM (active). For the same compound, the AC50 (A-375 [9]) was > 35 µM (active), the AC50 (INS1) was 8.14 µM (active) and the CC50 (Vero [10]) was 24 µM (active). For the same compound, the AC50 (A-375 [11]) was > 35 µM (active).
In the case of `COC(=O)C1C(O)C(C)C(O)C(C)(O)/C=C\C=C(/C)C(=O)Nc2c(C)c(OC(C)=O)c3c(c2O)C(=O)C(C)=C2OCOC(=C23)/C(C)=C/C(C)(O)C(O)C(C)C1O` (stereo not drawn), the AC50 (Escherichia coli) is reported as > 150 µM (inactive).
For `C/C=C(/C)C(=O)O[C@H]1[C@@H](O)c2c(ccc3ccc(=O)oc23)OC1(C)C`, the AC50 (CAAX prenyl protease 2) was 24.9 µM (active).
For `COc1ccc(/C=C/c2nc3ccccc3n2Cc2ccccc2OC)cc1`, the EC50 [12] was 663 nM (active), the EC50 [13] was > 60 µM (inconclusive) and the AC50 (Trypsin) was 3.43 µM (active). For the same compound, the AC50 (CAAX prenyl protease 2) was 3.33 µM (active).
With `COc1ccc(C(=O)NC(=S)NNC(=O)c2ccc(C)cc2)cc1` the EC50 [14] was > 150 µM (inactive), the EC50 [15] was 361 nM (active) and the EC50 [16] was 1.12 µM (active). For the same compound, the EC50 [17] was > 180 µM (inactive), the EC50 (Streptococcus) was 6.72 µM (active) and the CC50 (Vero [10]) was > 25 µM (active). The EC50 [18] was 5.92 µM (active).
For `CC(C)(O)C#Cc1ccc([C@@H]2C[C@H]3CN(c4ccccc4)C(=O)[C@]34CCCN24)s1`, the AC50 (HEK293) was 11.9 µM (active), the AC50 [19] was 5.64 µM (active) and the AC50 [20] was 4.93 µM (active). For the same compound, the AC50 [21] was > 70 µM (inactive) and the AC50 [22] was > 70 µM (inactive).
In the case of `COc1ccc(N2C(=O)c3ccccc3NC23CCC(C)CC3)cc1` (stereo not drawn), the IC50 (Cysteine protease ATG4B) is reported as 21.1 µM (inactive) and the IC50 (Phospholipase A2) is reported as 7.99 µM (active).
For `Cn1c(-c2ncc(F)cc2F)cc2onc(-c3c(F)cccc3Cl)c2c1=O`, the AC50 (HeLa) was 98 µM (active).
With `Cc1c(CCC(C)C)c(O)n2c(nc3ccccc32)c1C#N` the EC50 [23] was 69.3 µM (active), the EC50 [24] was > 120 µM (not active) and the EC50 [25] was > 120 µM (not active). For the same compound, the IC50 [26] was 38.6 µM (active).
